Results as given in patent US20220372040A1, “METTL3 MODULATORS” (Accent Therapeutics, Inc., priority 2020, published 2022).
Structures can show the parent of a compound that is named as a salt. Where two headings read alike, the source gives them in different places.

How the values were obtained:
Format in all cases: biochemical
PRMT5-MEP50 = PRMT5-MEP50 (Homo sapiens, UniProt O14744); test: PRMT5 assay (3H-SAM flashplate scintillation); conditions: PRMT5-MEP50 2.5 nM, histone H4 peptide 100 nM, 3H-SAM 250 nM, 60 min
Chain of PRMT5-MEP50 (O14744 whole entry): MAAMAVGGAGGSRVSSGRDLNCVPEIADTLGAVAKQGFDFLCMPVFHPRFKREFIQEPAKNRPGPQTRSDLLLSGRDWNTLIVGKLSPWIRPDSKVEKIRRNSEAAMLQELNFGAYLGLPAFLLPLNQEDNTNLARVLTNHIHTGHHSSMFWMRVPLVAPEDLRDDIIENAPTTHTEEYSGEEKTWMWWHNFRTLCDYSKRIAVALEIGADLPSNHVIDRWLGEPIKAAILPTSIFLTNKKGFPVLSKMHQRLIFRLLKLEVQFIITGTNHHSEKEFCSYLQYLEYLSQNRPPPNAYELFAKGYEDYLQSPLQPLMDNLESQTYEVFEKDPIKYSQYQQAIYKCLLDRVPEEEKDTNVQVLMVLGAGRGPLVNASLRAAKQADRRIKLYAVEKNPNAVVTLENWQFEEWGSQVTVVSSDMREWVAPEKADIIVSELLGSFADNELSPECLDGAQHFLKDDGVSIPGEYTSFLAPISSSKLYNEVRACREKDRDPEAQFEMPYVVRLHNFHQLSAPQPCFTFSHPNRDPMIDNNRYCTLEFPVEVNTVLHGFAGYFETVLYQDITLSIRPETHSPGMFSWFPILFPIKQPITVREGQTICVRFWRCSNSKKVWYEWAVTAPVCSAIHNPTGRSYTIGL
Chain of PRMT5-MEP50 (Q9BQA1 whole entry partner): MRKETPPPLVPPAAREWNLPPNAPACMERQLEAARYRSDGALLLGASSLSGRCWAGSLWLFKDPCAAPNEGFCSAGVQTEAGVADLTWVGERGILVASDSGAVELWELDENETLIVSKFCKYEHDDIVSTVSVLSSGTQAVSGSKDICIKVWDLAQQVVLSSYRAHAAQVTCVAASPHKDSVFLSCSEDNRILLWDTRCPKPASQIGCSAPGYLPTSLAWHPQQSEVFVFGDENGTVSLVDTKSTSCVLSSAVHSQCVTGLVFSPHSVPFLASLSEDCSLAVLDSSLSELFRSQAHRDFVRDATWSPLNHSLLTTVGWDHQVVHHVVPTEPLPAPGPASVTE
Description: Assays were performed in a 25 μl-volume in 384-well V-bottom polypropylene microplates (Greiner Bio-One, cat. No. 781280) at ambient temperature. Optimized 1× assay buffer was 20 mM Tris-HCl pH 8.0, 1 mM DTT, […]. For compound screening PRMT5-MEP50 (final concentration, f.c.=2.5 nM) was added using a Multidrop Combi (ThermoFisher Scientific, Waltham, Mass.) and preincubated for 5 min. Reactions were started by adding 3′ biotinylated histone H4 peptide acetylated on serine 1 (Ac-[…]-Biotin) (f.c.=100 nM) and 3H-SAM (f.c.=250 nM) substrates. Reactions proceeded for 60 minutes and were quenched with excess non-radioactive SAM (f.c.=15 μM). The reactions were then transferred to streptavidin-coated flashplates and incubated for 2 hours at 25° C. Following two washing cycles with 0.1% Tween-20, the plates were sealed and read on a TopCount (PerkinElmer, Waltham, Mass.) plate-based scintillation counter. For determination of kinetic parameters, reaction times were optimized so that measurements were taken during the initial velocity phase of the reaction.

METTL1/WDR4 = METTL1/WDR4 (Homo sapiens, UniProt Q9UBP6); test: METTL1 assay (3H-SAM flashplate scintillation)
Chain of METTL1/WDR4 (Q9UBP6 whole entry, species assumed): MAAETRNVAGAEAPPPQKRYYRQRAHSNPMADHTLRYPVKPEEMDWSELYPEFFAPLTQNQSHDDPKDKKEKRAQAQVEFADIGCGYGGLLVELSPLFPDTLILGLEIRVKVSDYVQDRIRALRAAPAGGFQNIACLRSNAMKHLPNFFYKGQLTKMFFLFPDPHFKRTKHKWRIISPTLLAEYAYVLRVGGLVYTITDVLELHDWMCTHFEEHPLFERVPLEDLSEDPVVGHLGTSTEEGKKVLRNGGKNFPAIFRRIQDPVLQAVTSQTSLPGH
Chain of METTL1/WDR4 (P57081 whole entry partner, species assumed): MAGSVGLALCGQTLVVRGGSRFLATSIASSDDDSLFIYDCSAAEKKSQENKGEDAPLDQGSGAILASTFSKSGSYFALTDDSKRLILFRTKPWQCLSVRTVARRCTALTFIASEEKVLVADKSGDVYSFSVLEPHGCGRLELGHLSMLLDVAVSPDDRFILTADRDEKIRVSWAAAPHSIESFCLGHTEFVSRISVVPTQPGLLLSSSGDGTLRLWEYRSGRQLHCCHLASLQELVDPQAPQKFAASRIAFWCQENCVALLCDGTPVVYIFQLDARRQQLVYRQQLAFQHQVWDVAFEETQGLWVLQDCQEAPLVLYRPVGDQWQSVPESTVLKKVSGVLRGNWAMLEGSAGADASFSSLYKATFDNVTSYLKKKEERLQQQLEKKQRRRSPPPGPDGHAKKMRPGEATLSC
Description: Assays were performed in a 25 μl-volume in 384-well V-bottom polypropylene microplates (Greiner Bio-One, cat. No. 781280) at ambient temperature. Optimized 1× assay buffer was 20 mM HEPES pH 7.5, 50 mM KCl, 250 μM MgCl2, 1 mM DTT, 0.01% Tween, 0.01% BSG, 0.004 U/μl RNAseOUT (cat. No. 10777019, ThermoFisher Scientific, Waltham, Mass.). For compound screening METTL1/WDR4 (final concentration, f.c.=6.25 nM) was added using a Multidrop Combi (ThermoFisher Scientific, Waltham, Mass.) and preincubated for 5 min. Reactions were started by adding 3′ biotinylated RNA ([…]-biotin) (f.c.=25 nM) and 3H-SAM (f.c.=60 nM) substrates. Reactions proceeded for 20 minutes and were quenched with excess non-radioactive SAM (f.c.=15 μM). The reactions were then transferred to streptavidin-coated flashplates and incubated for 2 hours at 25° C. Following two washing cycles with 0.1% Tween-20, the plates were sealed and read on a TopCount (PerkinElmer, Waltham, Mass.) plate-based scintillation counter. For determination of kinetic parameters, reaction times were optimized so that measurements were taken during the initial velocity phase of the reaction.

METTL3/METTL14 = METTL3/METTL14 (Homo sapiens, UniProt Q86U44); test: METTL3-14 standard enzyme assay (3H-SAM flashplate scintillation); conditions: METTL3/METTL14 2.5 nM, RNA 100 nM, 3H-SAM 100 nM, 30 min
Chain of METTL3/METTL14 (Q86U44 whole entry, species assumed): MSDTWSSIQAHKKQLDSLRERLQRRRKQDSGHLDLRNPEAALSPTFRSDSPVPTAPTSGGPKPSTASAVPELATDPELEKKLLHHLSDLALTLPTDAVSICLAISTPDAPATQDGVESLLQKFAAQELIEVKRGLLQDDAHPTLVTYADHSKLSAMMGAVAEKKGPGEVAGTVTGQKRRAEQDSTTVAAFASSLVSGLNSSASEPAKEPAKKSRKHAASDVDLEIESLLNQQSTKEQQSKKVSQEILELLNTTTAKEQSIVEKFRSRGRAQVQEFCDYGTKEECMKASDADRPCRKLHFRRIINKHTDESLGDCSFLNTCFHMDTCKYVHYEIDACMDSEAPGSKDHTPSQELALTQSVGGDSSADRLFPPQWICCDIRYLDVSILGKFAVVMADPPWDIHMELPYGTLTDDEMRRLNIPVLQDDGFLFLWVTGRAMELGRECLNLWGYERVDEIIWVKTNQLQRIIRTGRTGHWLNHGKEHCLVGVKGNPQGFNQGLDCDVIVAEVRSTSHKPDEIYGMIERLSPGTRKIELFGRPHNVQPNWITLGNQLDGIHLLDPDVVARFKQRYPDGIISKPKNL
Chain of METTL3/METTL14 (Q9HCE5 whole entry partner, species assumed): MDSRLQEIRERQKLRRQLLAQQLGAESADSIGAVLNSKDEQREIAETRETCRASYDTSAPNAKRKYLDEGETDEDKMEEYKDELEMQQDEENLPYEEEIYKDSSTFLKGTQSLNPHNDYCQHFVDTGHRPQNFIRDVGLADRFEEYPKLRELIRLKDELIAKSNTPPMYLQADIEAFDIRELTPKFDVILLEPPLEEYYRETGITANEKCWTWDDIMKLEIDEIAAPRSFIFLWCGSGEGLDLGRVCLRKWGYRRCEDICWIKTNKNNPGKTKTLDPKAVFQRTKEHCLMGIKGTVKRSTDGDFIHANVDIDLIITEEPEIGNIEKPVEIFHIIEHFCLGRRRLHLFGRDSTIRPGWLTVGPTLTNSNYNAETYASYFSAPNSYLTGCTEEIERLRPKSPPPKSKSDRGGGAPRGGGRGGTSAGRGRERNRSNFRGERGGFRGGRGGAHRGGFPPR
Description: METTL3-14 Standard Enzyme Assay
Assays were performed in a 25 μl-volume in 384-well V-bottom polypropylene microplates (Greiner Bio-One, cat. No. 781280) at ambient temperature. Optimized 1× assay buffer was 20 mM HEPES pH 7.5, 50 mM KCl, 250 μM MgCl2, 1 mM DTT, 0.01% Tween, 0.01% BSG, 0.004 U/μl RNAseOUT (cat. No. 10777019, ThermoFisher Scientific, Waltham, Mass.). For compound screening METTL3/METTL14 (final concentration, f.c.=2.5 nM) was added using a Multidrop Combi (ThermoFisher Scientific, Waltham, Mass.) and preincubated for 5 min. Reactions were started by adding 3′ biotinylated RNA (UCUGGACUAAA-biotin) (f.c.=100 nM) and 3H-SAM (f.c.=100 nM) substrates. Reactions proceeded for 30 minutes and were quenched with excess non-radioactive SAM (f.c.=15 μM). The reactions were then transferred to streptavidin-coated flashplates and incubated for 2 hours at 25° C. Following two washing cycles with 0.1% Tween-20, the plates were sealed and read on a TopCount (PerkinElmer, Waltham, Mass.) plate-based scintillation counter. For determination of kinetic parameters, reaction times were optimized so that measurements were taken during the initial velocity phase of the reaction.

[1] = METTL1/WDR4 6.25 nM, RNA 25 nM, 3H-SAM 60 nM, 20 min, read-out: METTL1 IC50

IC50 (METTL3/METTL14) [nM]	Compound	IC50 (PRMT5-MEP50) [nM]	IC50 (METTL1/WDR4) [nM]	IC50 (METTL1/WDR4; [1]) [nM]
	CNc1ccc2ccc(OCc3cc(-n4ccc5c(N)ncnc54)n[nH]3)cc2n1 [Compound I-2]	> 1000	> 1000	
	CNc1ccc2ccc(OC(C)c3cncc(-n4ccc5c(N)ncnc54)c3)cc2n1 (centres unmarked) [Compound I-4]	> 1000		> 1000
	CNc1ccc2cc(F)c(OCc3cncc(-n4cc(C5CCCC5)c5c(N)ncnc54)c3)cc2n1 [Compound I-5]	> 1000		> 1000
100 to 1000	CN1CCN(c2ccc3ccc(OCc4cncc(-n5cc(-c6ccn(C)n6)c6c(N)ncnc65)c4)cc3n2)CC1 [Compound I-204]	> 1000		
> 1000	Nc1ncnc2c1c(C1CCCO1)cn2-c1cncc(COc2cnc3ccc(N4CCC4)nc3c2)c1 (centres unmarked) [Compound I-207]	> 1000		
10 to 100	Cn1ccc(-c2cn(-c3cncc(COc4cc(F)c5ccc(N6CCC6)nc5c4)c3)c3ncnc(N)c23)n1 [Compound I-208]	> 1000		
> 1000	CN(CCO)C(=O)c1ccc(OCc2cncc(-n3cc(-c4ccn(C)n4)c4c(N)ncnc43)c2)cc1N [Compound I-209]	> 1000		
100 to 1000	Cn1ccc(-c2cn(-c3cncc(COc4ccc(CN5CCOCC5)c(N)c4)c3)c3ncnc(N)c23)n1 [Compound I-210]	> 1000		
> 1000	Cn1ccc(-c2cn(-c3cncc(COc4ccc(-c5ncco5)c(N)c4)c3)c3ncnc(N)c23)n1 [Compound I-211]	> 1000		
> 1000	Cn1ccc(-c2cn(-c3cncc(COc4ccc5ccc(N6CCOCC6=O)nc5c4)c3)c3ncnc(N)c23)n1 [Compound I-214]	> 1000		
> 1000	Nc1cc(OCc2cncc(-n3ccc4c(N)ncnc43)c2)ccc1C(=O)N1CCNCC1 [Compound I-215]	> 1000		
> 1000	CN(C)CCNC(=O)c1ccc(OCc2cncc(-n3ccc4c(N)ncnc43)c2)cc1N [Compound I-216]	> 1000		
> 1000	CN(C)CCNC(=O)c1ccc(OCc2cncc(-n3cc(Br)c4c(N)ncnc43)c2)cc1N [Compound I-218]	> 1000		
< 10	Cn1ccc(-c2cn(-c3cncc(CSc4ccc5ccc(N6CCC6)nc5c4)c3)c3ncnc(N)c23)n1 [Compound I-219, 7-[5-({[2-(azetidin-1-yl)quinolin-7-yl]sulfanyl}methyl)pyridin-3-yl]-5-(1-methyl-1H-pyrazol-3-yl)-7H-pyrrolo[2,3-d]pyrimidin-4-amine]	> 1000		
> 1000	Cn1ccc(-c2cn(-c3cncc(CS(=O)(=O)c4ccc5ccc(N6CCC6)nc5c4)c3)c3ncnc(N)c23)n1 [Compound I-220, 7-[5-({[2-(azetidin-1-yl)quinolin-7-yl]sulfonyl}methyl)pyridin-3-yl]-5-(1-methyl-1H-pyrazol-3-yl)-7H-pyrrolo[2,3-d]pyrimidin-4-amine]	> 1000		
> 1000	Cn1ccc(-c2cn(-c3cncc(C[S+]([O-])c4ccc5ccc(N6CCC6)nc5c4)c3)c3ncnc(N)c23)n1 (centres unmarked) [Compound I-221, 7-[5-({[2-(azetidin-1-yl)quinolin-7-yl]sulfinyl}methyl)pyridin-3-yl]-5-(1-methyl-1H-pyrazol-3-yl)-7H-pyrrolo[2,3-d]pyrimidin-4-amine]	100 to 1000		
> 1000	Cn1ccc(-c2cn(-c3cncc(COC(=O)Nc4cccc(Br)n4)c3)c3ncnc(N)c23)n1 [Compound I-223]	> 1000		
> 1000	Cn1ccc(-c2cn(-c3cncc(COC(=O)Nc4cccc(N5CCC5)n4)c3)c3ncnc(N)c23)n1 [Compound I-224, {5-[4-amino-5-(1-methyl-1H-pyrazol-3-yl)-7H-pyrrolo[2,3-d]pyrimidin-7-yl]pyridin-3-yl}methyl N-[6-(azetidin-1-yl)pyridin-2-yl]carbamate]	> 1000		
> 1000	Cn1ccc(-c2cn(-c3cncc(CNC(=O)Nc4cccc(N5CCC5)n4)c3)c3ncnc(N)c23)n1 [Compound I-225, 1-({5-[4-amino-5-(1-methyl-1H-pyrazol-3-yl)-7H-pyrrolo[2,3-d]pyrimidin-7-yl]pyridin-3-yl}methyl)-3-[6-(azetidin-1-yl)pyridin-2-yl]urea]	> 1000		

Compound	IC50 (METTL3/METTL14) [nM]	IC50 (PRMT5-MEP50) [nM]	IC50 (METTL1/WDR4) [nM]	IC50 (METTL1/WDR4; [1]) [nM]
CNc1ccc2ccc(OCc3cncc(-n4cc(C5CCC(F)(F)CC5)c5c(N)ncnc54)c3)cc2n1 [Compound I-3]	10 to 100	> 1000		> 1000
CCc1nc(N)c2ccn(-c3cncc(COc4ccc5ccc(NC)nc5c4)c3)c2n1 [Compound I-8]	< 10	> 1000		> 1000
CNc1ccc2ccc(OCc3cc(-n4cc(Cl)c5c(N)ncnc54)cnc3NC)cc2n1 [Compound I-13]	10 to 100	> 1000		> 1000
CNc1ccc2ccc(OCc3nc(-n4ccc5c(N)ncnc54)cs3)cc2n1 [Compound I-19]	10 to 100	> 1000	> 1000	
CNc1ccc2ccc(OCc3cc(C(N)=O)cc(-n4cc(Cl)c5c(N)ncnc54)c3)cc2n1 [Compound I-21]	100 to 1000	> 1000		> 1000
CNc1ccc2ccc(COc3cncc(-n4ccc5c(N)ncnc54)c3)cc2n1 [Compound I-22, 7-{[(5-{4-amino-7H-pyrrolo[2,3-d]pyrimidin-7-yl}pyridin-3-yl)oxy]methyl}-N-methylquinolin-2-amine]	10 to 100	> 1000		> 1000
Nc1ncnc2c1c(Cl)cn2-c1csc(COc2ccc3ccc(N4CCCC4)nc3c2)n1 [Compound I-23, 5-chloro-7-(2-(((2-(pyrrolidin-1-yl)quinolin-7-yl)oxy)methyl)thiazol-4-yl)-7H-pyrrolo[2,3-d]pyrimidin-4-amine hydrochloride]	> 1000	> 1000	> 1000	
CNc1ccc2ccc(OCc3ncc(-n4cc(Cl)c5c(N)ncnc54)s3)cc2n1 [Compound I-24]	> 1000	> 1000	> 1000	
CNc1ccc2ccc(OCc3nc(-n4cc(Cl)c5c(N)ncnc54)cs3)cc2n1 [Compound I-37]	10 to 100	> 1000		> 1000
Nc1ncnc2c1c(Cl)cn2-c1nnc(COc2ccc3ccc(N4CCCC4)nc3c2)s1 [Compound I-38, 5-chloro-7-(5-(((2-(pyrrolidin-1-yl)quinolin-7-yl)oxy)methyl)-1,3,4-thiadiazol-2-yl)-7H-pyrrolo[2,3-d]pyrimidin-4-amine trifluoroacetate]	> 1000	> 1000	> 1000	
Nc1ncnc2c1ccn2-c1cncc(COc2ccc3c(=O)cc[nH]c3c2)c1 [Compound I-88]	> 1000	> 1000		> 1000
CCc1cc(NCCN(C)C)c2ccc(OCc3cncc(-n4ccc5c(N)ncnc54)n3)cc2n1 [Compound I-89]	< 10	> 1000		> 1000
CC(C)c1nc(N)c2ccc(OCc3cncc(-n4ccc5c(N)ncnc54)c3)cc2n1 [Compound I-91]	10 to 100	> 1000		> 1000
CC(C)(C)c1cc(N)c2ccc(OCc3cncc(-n4ccc5c(N)ncnc54)c3)cc2n1 [Compound I-93]	< 10	> 1000		> 1000
